Our source for the IC50 values is patent US6984653B2, “Heterocyclic compounds, oxazole derivatives, process for preparation of the same and use thereof” (Takeda Pharmaceutical Company Limited, priority 2001, dated 2006).

In test [1] the test system is human breast cancer cell BT-474. Description: Inhibitory action on breast cancer cell BT-474 proliferation in vitro (SRB). The format is cell-based. Conditions: 120 h, BT-474 cells, cultured for 5 days, SRB staining, read-out: Cell growth inhibition BT-474 (IC50: μM). How it is done:
A suspension of human breast cancer cell BT-474 (100 μl (6,000 cells)) were sown to a 96-well microplate and cultured at 37° C. in the presence of 5% carbon dioxide. On the following day, 100 μl of a solution of each test compound, which was previously diluted 2-fold, was added, and the cells were cultured for 5 days. After the culture medium containing the test compound was removed, the cells were washed and fixed with 50% trichloroacetic acid, after which a 0.4% (w/v) SRB solution (dissolved in 1% acetic acid) was added to stain the cells (Skehan et al., Journal of the National Cancer Institute, Vol. 82, pp. 1107-1112, 1990). After the pigment solution was removed and the plate was washed with a 1% acetic acid solution, 100 μl of an extract (10 mM Tris solution) was added to dissolve the pigment; absorbance was measured at an absorption wavelength of 550 nm to quantify the amount of cells as protein content. Taking as 100% the absorbance for the control group, which received no test compound solution, the ratio of the absorbance for each treatment group was determined, and the compound concentration required to achieve 50% suppression of the residual cell content relative to the control (IC50 value) was calculated.

For a further test, the target named is T1, HER2 (Homo sapiens, UniProt P04626).
T1 construct: Taking as 100% the amount of phosphorylation of the HER2 tyrosine in control group; endogenous in cells; host or cells: BT-474 human breast cancer cells
T1 sequence (P04626 23-1255): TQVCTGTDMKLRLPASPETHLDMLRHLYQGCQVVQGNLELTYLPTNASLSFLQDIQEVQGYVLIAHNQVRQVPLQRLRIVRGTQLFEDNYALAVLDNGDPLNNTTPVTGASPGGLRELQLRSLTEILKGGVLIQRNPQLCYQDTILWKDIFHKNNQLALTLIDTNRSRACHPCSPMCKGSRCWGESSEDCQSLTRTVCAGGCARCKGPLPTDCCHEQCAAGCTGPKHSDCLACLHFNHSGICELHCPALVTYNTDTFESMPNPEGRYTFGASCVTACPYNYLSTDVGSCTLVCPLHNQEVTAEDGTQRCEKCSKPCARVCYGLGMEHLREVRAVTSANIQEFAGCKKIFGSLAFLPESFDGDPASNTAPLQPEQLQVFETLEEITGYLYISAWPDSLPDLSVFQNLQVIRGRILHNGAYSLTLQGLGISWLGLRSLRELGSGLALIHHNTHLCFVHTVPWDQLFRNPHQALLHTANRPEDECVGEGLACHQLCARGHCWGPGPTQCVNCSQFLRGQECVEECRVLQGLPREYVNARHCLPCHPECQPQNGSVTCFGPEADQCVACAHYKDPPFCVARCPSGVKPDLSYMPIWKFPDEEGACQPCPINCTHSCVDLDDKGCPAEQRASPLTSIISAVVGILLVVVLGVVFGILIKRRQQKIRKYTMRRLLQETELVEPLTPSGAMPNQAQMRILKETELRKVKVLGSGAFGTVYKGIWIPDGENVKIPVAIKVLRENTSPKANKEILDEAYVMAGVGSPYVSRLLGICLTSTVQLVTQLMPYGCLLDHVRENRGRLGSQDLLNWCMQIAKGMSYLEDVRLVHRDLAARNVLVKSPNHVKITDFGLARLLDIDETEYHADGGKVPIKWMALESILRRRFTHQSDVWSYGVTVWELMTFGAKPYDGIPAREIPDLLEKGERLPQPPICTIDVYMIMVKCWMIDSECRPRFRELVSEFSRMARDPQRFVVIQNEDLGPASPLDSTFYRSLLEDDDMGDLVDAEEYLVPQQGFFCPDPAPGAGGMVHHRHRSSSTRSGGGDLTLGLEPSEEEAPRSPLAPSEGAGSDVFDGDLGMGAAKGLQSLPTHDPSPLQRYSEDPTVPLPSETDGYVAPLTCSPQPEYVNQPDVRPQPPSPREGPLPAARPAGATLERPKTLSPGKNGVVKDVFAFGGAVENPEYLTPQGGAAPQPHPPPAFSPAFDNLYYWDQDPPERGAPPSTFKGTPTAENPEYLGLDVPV
Description: Suppression of receptor tyrosine-phosphorylation in human breast cancer cells BT-474. The format is cell-based. Conditions: BT-474 cells, 2 hours with test compound, anti-phosphotyrosine antibody blot; read-out: Inhibition of intracellular HER2 phosphorylation BT-474 (IC50: μM). How it is done: A suspension of human breast cancer cell BT-474 (500 μl (300,000 cells)) were sown into a 24-well plate, and cultured at 37° C. in the presence of 5% carbon dioxide. On the following day, 250 μl of a solution of the test compound, which was previously 4-fold diluted, was added. After 2 hours, the extraction was added to stop the reaction and the protein was extracted. This protein was subjected to protein electrophoresis to separate and transferred to a nylon filter. This filter was reacted with an anti-phosphotyrosine antibody; the reaction product was luminated. The amount of film photosensitization was determined using an image analyzer. Taking as 100% the amount of phosphorylation of the HER2 tyrosine in control group, the ratio of the amount of phosphorylation of the HER2 tyrosine in each group receiving a solution of the test compound at each concentration was determined, and the test compound concentration required to achieve 50% suppression by the test compound of the amount of phosphorylation of HER2 tyrosine (IC50 value) was calculated.

Bounds are passed on as bounds.

For the compound `CC(C)NC(=O)OCCc1nccn1CCCCc1ccc(OCc2coc(/C=C/c3ccc(C(F)(F)F)cc3)n2)cc1` [Example 1, 2-[1-[4-[4-[[2-[(E)-2-[4-(trifluoromethyl)phenyl]ethenyl]-1,3-oxazol-4-yl]methoxy]phenyl]butyl]-1H-imidazol-2-yl]ethyl isopropylcarbamate], the figures for the half-maximal inhibitory concentration (IC50) (in test [1]; on HER2) were less than 0.05 µM and less than 4 µM, respectively.

Turning to `O=C(OCCc1nccn1CCCCc1ccc(OCc2coc(/C=C/c3ccc(C(F)(F)F)cc3)n2)cc1)N1CCCC1` [Example 3, 2-[1-[4-[4-[[2-[(E)-2-[4-(trifluoromethyl)phenyl]ethenyl]-1,3-oxazol-4-yl]methoxy]phenyl]butyl]-1H-imidazol-2-yl]ethyl 1-pyrroridinecarboxylate], the IC50 is less than 0.05 µM in test [1] and less than 4 µM at HER2.

Take `CN(C)C(=O)CCc1nccn1CCCCc1ccc(OCc2coc(/C=C/c3ccc(C(F)(F)F)cc3)n2)cc1` [Example 5, N,N-dimethyl-3-[1-[4-[4-[[2-[(E)-2-[4-(trifluoromethyl)phenyl]ethenyl]-1,3-oxazol-4-yl]methoxy]phenyl]butyl]-1H-imidazol-2-yl]propanamide]: the IC50 in test [1] was less than 0.05 µM; at HER2, less than 4 µM.

Take `O=C(CCc1nccn1CCCCc1ccc(OCc2coc(/C=C/c3ccc(C(F)(F)F)cc3)n2)cc1)N1CCCC1` [Example 6, 1-{3-[1-(4-{4-[(2-{(E)-2-[4-(trifluoromethyl)phenyl]ethenyl}-1,3-oxazol-4-yl)methoxy]phenyl}butyl)-1H-imidazol-2-yl]propanoyl}pyrrolidine]: the concentration for half-maximal inhibition (IC50) in test [1] is less than 0.05 µM; on HER2 it was less than 4 µM.

As to `CS(=O)(=O)CCc1nccn1CCCCc1ccc(OCc2coc(/C=C/c3ccc(F)cc3)n2)cc1` [Example 11, 2-[(E)-2-(4-fluorophenyl)ethenyl]-4-[[4-[4-[2-[2-(methylsulfonyl)ethyl]-1H-imidazol-1-yl]butyl]phenoxy]methyl]-1,3-oxazole], at HER2, the IC50 was less than 4 µM.

On to `CS(=O)(=O)NCCc1nccn1CCCCc1ccc(OCc2coc(/C=C/c3ccc(C(F)(F)F)cc3)n2)cc1` [Example 16, N-[2-[1-[4-[4-[[2-[(E)-2-[4-(trifluoromethyl)phenyl]ethenyl]-1,3-oxazol-4-yl]methoxy]phenyl]butyl]-1H-imidazol-2-yl]ethyl]methanesulfonamide], for which the IC50 was 0.15 µM in test [1] and less than 4 µM on HER2.

Consider `CS(=O)(=O)CCc1nccn1CCCCc1ccc(OCc2coc(/C=C/c3ccc(C(F)(F)F)cc3)n2)cc1` [Example 17, 4-[[4-[4-[2-[2-(methylsulfonyl)ethyl]-1H-imidazol-1-yl]butyl]phenoxy]methyl]-2-[(E)-2-[4-(trifluoromethyl)phenyl]ethenyl]-1,3-oxazole], for which the IC50 on HER2 was less than 4 µM.
